Test results taken from US20030138423A1, “Method of treating inflammation with HIV-1 protease inhibitors and their derivatives” (CEDARS-SINAI MEDICAL CENTER, priority 2001, published 2003).
Entries after “also recorded” stand apart in the source; their conditions may differ.

Columns and labels:
[1] = tested on: NF-κB; assay: PSM-induced NF-κB luciferase activation in HMEC; format: cell-based, human; settings: one-hour pretreatment
[2] = tested on: NF-κB; assay: STF-induced NF-κB luciferase activation in HMEC; format: cell-based, human; settings: one-hour pretreatment
[3] = tested on: IκB-α; assay: LPS-induced IκB-α degradation in HMEC, Western blot; format: cell-based, human; settings: HMEC pretreated one hour, LPS 30, 60, 90 minutes
Experimental: Conditioned endothelial cells were lysed for 30 minutes on ice in a lysis buffer containing 0.1 mM ethylenediamine tetra-acetic acid (“EDTA,” available from Sigma), 10 mM NaF, 1 mM Na3VO4, 0.1% Triton X-100, 20 mM Tris-HCl (pH 7.5), and 1 μg/ml each of the protease inhibitors pepstatin, leupeptin, aprotinin, antipain, and chymostatin (all available from Roche).
Following lysis, cell debris was removed by centrifugation (14,000×g, 4° C., 1-2 minutes). Protein concentrations were determined using the Bradford assay. 50 μg of total protein was added in Laemmli buffer, boiled for 5 minutes, resolved by 10% sodium dodecyl sulphate polyacrylamide gel electrophoresis (“SDS-PAGE”) in Tris/glycine/SDS buffer (25 mM Tris, 250 mM glycine, 0.1% SDS), and blotted onto Immunobilon P transfer membranes (obtained from Amersham Pharmacia Biotech UK Ltd.; Buckinghamshire, England, hereinafter “Amersham”) (100 V, 1.5 hours, 4° C.). […] Membranes were thereafter and washed five times in PBST, and bands were detected using ECL reagents (obtained from Amersham) according to manufacturer's description.
Upon exposure of immune system cells to bacterial and mycobacterial antigens, IκB-α degradation is the key step before NF-κB activation. We assessed the effect of nelfinavir pretreatment of HMEC on LPS-induced IκB-α degradation. […] IκB-α degradation was assessed by Western Blot analysis for phosphorylated IκB-α.

[4] = tested on: HMEC; assay: LDH release (cell death) in HMEC; format: cell-based, human; settings: pretreatment prior to LPS stimulation
Experimental: For the quantification of nelfinavir-induced cell death, lactate dehydrogenase (LDH) activity in HMEC culture supernatants was measured with a cytotoxicity detection kit (obtained from Roche Diagnostics; Indianapolis, Ind., hereinafter “Roche”) according to manufacturer's instructions. Percentage of LDH activity in the supernatants was calculated according to the following: [(Experimental Value—LDH activity released from untreated cells)/(Maximum Releasable LDH Activity in the Cells by 1% Triton X-100-LDH Activity Released from Untreated Cells)]×100.

[5] = tested on: IL-6; assay: LPS-induced IL-6 luciferase activation in HMEC; format: cell-based, human; settings: 1-hour pretreatment
Excerpt: Interleukin-6 (IL-6) is a known proinflammatory cytokine that mediates development of LPS-induced sepsis and septic shock.

[6] = tested on: TNF-α; assay: LPS-induced TNF-α production in THP-LTR-Luc cells, ELISA; format: cell-based; settings: THP-LTR-Luc cells (FIG. 9 legend)
Experimental: After five hours of LPS stimulation, supernatants from HMEC were analyzed for TNF-α production by using an ELISA kit (obtained from R&D Systems; Minneapolis, Minn.) according to manufacturer's instructions. All data for TNF-α represent the average of triplicate samples ±S.D. Each experiment was repeated at least twice.

[7] = tested on: NF-κB; assay: TNF-α-induced NF-κB activation in HMEC; format: cell-based, human; settings: one-hour pretreatment, TNF-α 100 ng/ml
[8] = target: T1, erythrocyte 20S proteasome (Homo sapiens, UniProt P28074); assay: 20S Proteasome Assay, Suc-LLVY-AMC substrate; format: biochemical; settings: SDS-preactivated erythrocyte 20S proteasome
T1 construct: purchased Biomol Research Laboratories, Inc; host or cells: erythrocytes (purified native complex)
Experimental: The effect of nelfinavir on 20S proteasome activity was assessed using a 20S Proteasome Assay Kit (obtained from Biomol Research Laboratories, Inc.; Plymouth Meeting, Pa.) according to manufacturer's instructions. Briefly, erythrocyte 20S proteasome that is preactivated by SDS was added to Suc-LLVY-AMC fluorogenic peptide substrate, which is used to measure the chymotrypsin like peptidase activity, with or without nelfinavir. A proteasome inhibitor, lactacystin, was included as a control. The microtiter plate was read at an approximate excitation of 360 nm and at emission 460 nm. All data represent the average of triplicate samples ±S.D.

[9] = target: 20S proteasome (Mus musculus, UniProt O55234); settings: literature; cited from earlier work
[10] = tested on: NF-κB; assay: LPS-induced NF-κB luciferase activation in HMEC; settings: pretreatment before LPS, nelfinavir 1, 3, 6 μg/ml
[11] = tested on: HIV-LTR; assay: LPS-induced HIV-LTR luciferase activation in HMEC; settings: nelfinavir 1, 3, 6 μg/ml (FIG. 2) or 0.5, 2, 4 μg/ml (FIG. 6)
[12] = tested on: lymphocytic choriomeningitis virus (LCMV); settings: mice infected with LCMV, literature; cited from earlier work
[13] = tested on: MB-1 (X) and/or LMP7 proteasome subunits; settings: vinyl sulfone inhibitor 125I-NLVS, literature; cited from earlier work

Cc1c(O)cccc1C(=O)N[C@@H](CSc1ccccc1)[C@H](O)CN1C[C@H]2CCCC[C@H]2C[C@H]1C(=O)NC(C)(C)C [nelfinavir]
PSM-induced NF-κB activation (percent NF-κB luciferase activity) [1]: blocked NF-κB activation; also recorded: blocked both STF and PSM | STF-induced NF-κB activation (percent NF-κB luciferase activity) [2]: blocked NF-κB activation; also recorded: blocked both STF and PSM | LPS-induced IκB-α degradation [3]: markedly less LPS-induced IκB-α degradation; also recorded: delayed the degradation; also recorded: a delay in LPS-induced IκB-α degradation | cell death (LDH release) [4]: without inducing apoptosis or death of the cells; also recorded: did not induce cell death; also recorded: not induced | LPS-induced IL-6 luciferase activation [5]: blocked LPS-induced IL-6 luciferase activation | LPS-induced TNF-α production [6]: blocked production to a lesser extent | TNF-α-induced NF-κB activation [7]: down-regulated | chymotrypsin-like activity of 20S proteasome [8]: did not inhibit the chymotrypsin-like activity of 20s proteasome | chymotrypsin-like activity of the 20S proteasome [9]: no inhibition at all | LPS-induced NF-κB activation (percent NF-κB luciferase activity) [10]: blocked LPS-induced NF-κB activation in a dose-dependent manner; also recorded: decreased the NF-κB activity | LPS-induced HIV-LTR activation (percent HIV-LTR luciferase activity) [11]: blocked LPS-induced HIV-LTR activation in a dose-dependent manner

CC(C)c1nc(CN(C)C(=O)N[C@H](C(=O)N[C@@H](Cc2ccccc2)C[C@H](O)[C@H](Cc2ccccc2)NC(=O)OCc2cncs2)C(C)C)cs1 [ritonavir]
LPS-induced IL-6 luciferase activation [5]: blocked LPS-induced IL-6 luciferase activation | LPS-induced TNF-α production [6]: blocked production to a lesser extent | TNF-α-induced NF-κB activation [7]: down-regulated | chymotrypsin-like activity of the 20S proteasome [9]: selectively inhibit the chymotrypsin-like activity of the 20S proteasome | LCMV replication [12]: not affected | protection of proteasome subunits from covalent active site modification [13]: protected the MB-1 (X) and/or LMP7 proteasome subunits from covalent active site modification | LPS-induced NF-κB activation (percent NF-κB luciferase activity) [10]: blocked LPS-induced NF-κB activation; also recorded: more potent than indinavir; also recorded: down-regulation of LPS-induced NF-κB activation

CC(C)(C)NC(=O)[C@@H]1CN(Cc2cccnc2)CCN1C[C@@H](O)C[C@@H](Cc1ccccc1)C(=O)N[C@H]1c2ccccc2C[C@H]1O [indinavir]
LPS-induced IL-6 luciferase activation [5]: blocked LPS-induced IL-6 luciferase activation | LPS-induced TNF-α production [6]: blocked TNF-α production | chymotrypsin-like activity of the 20S proteasome [9]: no inhibition at all

CC(C)(C)NC(=O)[C@@H]1C[C@@H]2CCCC[C@@H]2CN1C[C@@H](O)[C@H](Cc1ccccc1)NC(=O)[C@H](CC(N)=O)NC(=O)c1ccc2ccccc2n1 [saquinavir]
LPS-induced IL-6 luciferase activation [5]: blocked LPS-induced IL-6 luciferase activation | LPS-induced TNF-α production [6]: blocked TNF-α production | TNF-α-induced NF-κB activation [7]: down-regulated | chymotrypsin-like activity of the 20S proteasome [9]: inhibited chymotrypsin-like activity to a significantly lesser degree | LPS-induced NF-κB activation (percent NF-κB luciferase activity) [10]: blocked LPS-induced NF-κB activation; also recorded: more potent than indinavir; also recorded: down-regulation of LPS-induced NF-κB activation
